Measured values: ChEMBL document CHEMBL3885881, “DrugMatrix”

Species: Rattus norvegicus
Assay: DrugMatrix - Regimen: Daily Repeat
Format: toxicity, organism-based, Sprague-Dawley
Set-up: regimen Daily Repeat, gender Male, age 6-8 weeks
Conditions: in vivo, po, route oral GAVAGE, vehicle 100 % WATER; for ABSOLUTE BASOPHIL / ABSOLUTE EOSINOPHIL / ABSOLUTE LYMPHOCYTE / ABSOLUTE MONOCYTE / ABSOLUTE SEGMENTED NEUTROPHIL / BASOPHIL / EOSINOPHIL / ERYTHROCYTE COUNT / HEMATOCRIT / HEMOGLOBIN / LEUKOCYTE COUNT / LYMPHOCYTE / MEAN CORPUSCULAR HEMOGLOBIN / MEAN CORPUSCULAR HEMOGLOBIN CONCENTRATION / MEAN CORPUSCULAR VOLUME / MONOCYTE / NEUTROPHIL / NUCLEATED RED BLOOD CELLS / PLATELET COUNT: tissue Blood; for ALANINE AMINOTRANSFERASE / ALBUMIN / ALKALINE PHOSPHATASE / ASPARTATE AMINOTRANSFERASE / BLOOD UREA NITROGEN / CARBON DIOXIDE / CHLORIDE / CHOLESTEROL / CREATINE PHOSPHOKINASE / CREATININE / GLUCOSE / LACTATE DEHYDROGENASE / LIPASE / PHOSPHORUS / POTASSIUM / SODIUM / TOTAL BILIRUBIN / TOTAL PROTEIN / URIC ACID: tissue Plasma
[1] = 20 mg/kg, 120 h, dose level Low, time 5 day
[2] = 70 mg/kg, 72 h, dose level High, time 3 day
[3] = 70 mg/kg, 120 h, dose level High, time 5 day

CCCC(C)C1(CC)C(=O)NC(=O)NC1=O (centres undefined) [PENTOBARBITAL]
ABSOLUTE BASOPHIL [1]: 0 CELLS/uL
ABSOLUTE EOSINOPHIL [1]: 0 CELLS/uL
ABSOLUTE LYMPHOCYTE [1]: 9855 CELLS/uL
ABSOLUTE MONOCYTE [1]: 58 CELLS/uL
ABSOLUTE SEGMENTED NEUTROPHIL [1]: 1187 CELLS/uL
BASOPHIL [1]: 0%
EOSINOPHIL [1]: 0%
ERYTHROCYTE COUNT [1]: 5.44 x10E6/uL
HEMATOCRIT [1]: 34.1%
HEMOGLOBIN [1]: 13.23 G/DL
LEUKOCYTE COUNT [1]: 11.1 x10E3/uL
LYMPHOCYTE [1]: 89%
MEAN CORPUSCULAR HEMOGLOBIN [1]: 24.33 pg
MEAN CORPUSCULAR HEMOGLOBIN CONCENTRATION [1]: 38.83 G/DL
MEAN CORPUSCULAR VOLUME [1]: 62.67 fL
MONOCYTE [1]: 0.67%
NEUTROPHIL [1]: 10.33%
NUCLEATED RED BLOOD CELLS [1]: 0 /100WBC
PLATELET COUNT [1]: 1231.67 x10E3/uL
ALANINE AMINOTRANSFERASE [1]: 60.33 u/L
ALBUMIN [1]: 3.8 G/DL
ALKALINE PHOSPHATASE [1]: 346 u/L
ASPARTATE AMINOTRANSFERASE [1]: 88.33 u/L
BLOOD UREA NITROGEN [1]: 17 mg/dL
CARBON DIOXIDE [1]: 32.67 mmol/L
CHLORIDE [1]: 99.33 MEQ/L
CHOLESTEROL [1]: 71.67 mg/dL
CREATINE PHOSPHOKINASE [1]: 344.67 u/L
CREATININE [1]: 0.19 mg/dL
GLUCOSE [1]: 155 mg/dL
LACTATE DEHYDROGENASE [1]: 163 u/L
LIPASE [1]: 8.67 u/L
PHOSPHORUS [1]: 11.17 mg/dL
POTASSIUM [1]: 5.63 MEQ/L
SODIUM [1]: 145.17 MEQ/L
TOTAL BILIRUBIN [1]: 0.17 mg/dL
TOTAL PROTEIN [1]: 5.63 G/DL
URIC ACID [1]: 0.67 mg/dL
ABSOLUTE BASOPHIL [2]: 0 CELLS/uL
ABSOLUTE EOSINOPHIL [2]: 29 CELLS/uL
ABSOLUTE LYMPHOCYTE [2]: 9707 CELLS/uL
ABSOLUTE MONOCYTE [2]: 106.67 CELLS/uL
ABSOLUTE SEGMENTED NEUTROPHIL [2]: 824 CELLS/uL
BASOPHIL [2]: 0%
EOSINOPHIL [2]: 0.33%
ERYTHROCYTE COUNT [2]: 5.46 x10E6/uL
HEMATOCRIT [2]: 34.73%
HEMOGLOBIN [2]: 13.4 G/DL
LEUKOCYTE COUNT [2]: 10.67 x10E3/uL
LYMPHOCYTE [2]: 91%
MEAN CORPUSCULAR HEMOGLOBIN [2]: 24.57 pg
MEAN CORPUSCULAR HEMOGLOBIN CONCENTRATION [2]: 38.63 G/DL
MEAN CORPUSCULAR VOLUME [2]: 63.53 fL
MONOCYTE [2]: 1%
NEUTROPHIL [2]: 7.67%
NUCLEATED RED BLOOD CELLS [2]: 0 /100WBC
PLATELET COUNT [2]: 792 x10E3/uL
ALANINE AMINOTRANSFERASE [2]: 58 u/L
ALBUMIN [2]: 4.2 G/DL
ALKALINE PHOSPHATASE [2]: 300.33 u/L
ASPARTATE AMINOTRANSFERASE [2]: 75.67 u/L
BLOOD UREA NITROGEN [2]: 13 mg/dL
CARBON DIOXIDE [2]: 34.67 mmol/L
CHLORIDE [2]: 101.33 MEQ/L
CHOLESTEROL [2]: 81.33 mg/dL
CREATINE PHOSPHOKINASE [2]: 230 u/L
CREATININE [2]: 0.16 mg/dL
GLUCOSE [2]: 139 mg/dL
LACTATE DEHYDROGENASE [2]: 113.33 u/L
LIPASE [2]: 9 u/L
PHOSPHORUS [2]: 11.77 mg/dL
POTASSIUM [2]: 6.23 MEQ/L
SODIUM [2]: 146.57 MEQ/L
TOTAL BILIRUBIN [2]: 0.2 mg/dL
TOTAL PROTEIN [2]: 6.17 G/DL
URIC ACID [2]: 0.73 mg/dL
ABSOLUTE BASOPHIL [3]: 0 CELLS/uL
ABSOLUTE EOSINOPHIL [3]: 23.33 CELLS/uL
ABSOLUTE LYMPHOCYTE [3]: 7811.33 CELLS/uL
ABSOLUTE MONOCYTE [3]: 0 CELLS/uL
ABSOLUTE SEGMENTED NEUTROPHIL [3]: 598.67 CELLS/uL
BASOPHIL [3]: 0%
EOSINOPHIL [3]: 0.33%
ERYTHROCYTE COUNT [3]: 5.7 x10E6/uL
HEMATOCRIT [3]: 36%
HEMOGLOBIN [3]: 13.73 G/DL
LEUKOCYTE COUNT [3]: 8.43 x10E3/uL
LYMPHOCYTE [3]: 92.33%
MEAN CORPUSCULAR HEMOGLOBIN [3]: 24.1 pg
MEAN CORPUSCULAR HEMOGLOBIN CONCENTRATION [3]: 38.17 G/DL
MEAN CORPUSCULAR VOLUME [3]: 63.17 fL
MONOCYTE [3]: 0%
NEUTROPHIL [3]: 7.33%
NUCLEATED RED BLOOD CELLS [3]: 0 /100WBC
PLATELET COUNT [3]: 1184.67 x10E3/uL
ALANINE AMINOTRANSFERASE [3]: 60 u/L
ALBUMIN [3]: 4.2 G/DL
ALKALINE PHOSPHATASE [3]: 346 u/L
ASPARTATE AMINOTRANSFERASE [3]: 81 u/L
BLOOD UREA NITROGEN [3]: 14 mg/dL
CARBON DIOXIDE [3]: 33 mmol/L
CHLORIDE [3]: 99 MEQ/L
CHOLESTEROL [3]: 74.33 mg/dL
CREATINE PHOSPHOKINASE [3]: 461.33 u/L
CREATININE [3]: 0.13 mg/dL
GLUCOSE [3]: 131.67 mg/dL
LACTATE DEHYDROGENASE [3]: 142.67 u/L
LIPASE [3]: 11.67 u/L
PHOSPHORUS [3]: 10.57 mg/dL
POTASSIUM [3]: 5.73 MEQ/L
SODIUM [3]: 145.3 MEQ/L
TOTAL BILIRUBIN [3]: 0.2 mg/dL
TOTAL PROTEIN [3]: 6.17 G/DL
URIC ACID [3]: 0.53 mg/dL
